Measured values as given in PMC10191325 (PLOS Neglected Tropical Diseases, 2023).

Legend:
[1] = biological target: T1, WbDHFR (dihydrofolate reductase) (Wuchereria bancrofti, UniProt J9F199); assay: X-ray crystal structure ([…] Å) and tryptophan fluorescence equilibrium titration; assay type: binding; set-up: gene WUBG_00817; open reading frame with engineered N-terminal His6-tag
[2] = biological target: T1, WbDHFR (dihydrofolate reductase); assay: biochemical; set-up: gene WUBG_00817

SMILES	Kd [1]	IC50 [2]
NC(=O)C1=CN([C@@H]2O[C@H](COP(=O)(O)OP(=O)(O)OC[C@H]3O[C@@H](n4cnc5c(N)ncnc54)[C@H](OP(=O)(O)O)[C@@H]3O)[C@@H](O)[C@H]2O)C=CC1 [NADPH]	90 ± 29 nM	
Nc1nc2ncc(CNc3ccc(C(=O)N[C@@H](CCC(=O)O)C(=O)O)cc3)nc2c(=O)[nH]1 [folate]	23 ± 4 nM	
COc1cc(NCc2ccc3nc(N)nc(N)c3c2C)cc(OC)c1OC [TMX, trimetrexate]		490 ± 160 nM
